Test results published in BigSolDB 2.1.

C[C@@H]1CC[C@H]2[C@@H](C)C(=O)O[C@@H]3O[C@@]4(C)CC[C@@H]1[C@]32OO4
solubility (mole fraction)
Details	284.15 K	289.15 K	295.15 K	298.15 K	304.15 K	309.15 K	314.15 K	319.15 K	323.15 K
in 2-butanone	0.0163	0.0212	0.0292	0.0337	0.046	0.0585	0.0762	0.0919	0.117
in MTBE	0.00109	0.00154	0.00234	0.00285	0.00421	0.00579	0.0079	0.0107	0.0136
in acetone	0.00405	0.0053	0.0073	0.00848	0.0115	0.0147	0.0187	0.0236	0.0284
in acetonitrile	0.00084	0.00112	0.00157	0.00184	0.00254	0.00329	0.00424	0.00544	0.00661
in ethanol	0.00236	0.00305	0.00412	0.00475	0.00631	0.00796	0.01	0.0125	0.0149
in ethyl acetate	0.00557	0.00784	0.0118	0.0142	0.0208	0.0283	0.0383	0.0514	0.0647
in isopropyl acetate	0.00683	0.00838	0.0107	0.012	0.015	0.0182	0.0218	0.0261	0.0301
in methanol	0.00056	0.00078	0.00117	0.00142	0.00207	0.00281	0.0038	0.00508	0.00639
in n-butanol	0.00085	0.00127	0.00203	0.00253	0.00394	0.00563	0.00799	0.0112	0.0147
in n-heptane	5.1e-05	7.2e-05	0.000113	0.00013	0.000202	0.000282	0.000383	0.000531	0.000684
in n-hexane	5e-05	7e-05	0.000111	0.000132	0.000201	0.00028	0.000381	0.000534	0.000681
in toluene	0.017	0.0226	0.0316	0.0369	0.0507	0.0656	0.0843	0.108	0.131
